Source: PubChem BioAssay (NCI)
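Dose response: 5 concentrations. Exposure: 48 h. Format: 96-well plates. Endpoint: linear interpolation; highest concentration if not reached. TGI: concentration producing complete growth inhibition.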

Assays:
Test in all cases: NCI tumour cell line growth inhibition, 48 h
MDA-MB-435 = system: MDA-MB-435
SK-MEL-28 melanoma = system: SK-MEL-28 melanoma
UO-31 renal = system: UO-31 renal
MDA-N = system: MDA-N
SF-268 CNS = system: SF-268 CNS
HCC-2998 colon = system: HCC-2998 colon
NCI-H460 lung = system: NCI-H460 lung
A498 renal = system: A498 renal
CAKI-1 renal = system: CAKI-1 renal
SR leukemia = system: SR leukemia
KM12 colon = system: KM12 colon
TK-10 renal = system: TK-10 renal
RPMI-8226 leukemia = system: RPMI-8226 leukemia
OVCAR-8 ovarian = system: OVCAR-8 ovarian
UACC-62 melanoma = system: UACC-62 melanoma
U251 CNS = system: U251 CNS
LOX IMVI melanoma = system: LOX IMVI melanoma
SNB-75 CNS = system: SNB-75 CNS
SK-MEL-5 melanoma = system: SK-MEL-5 melanoma
IGROV1 ovarian = system: IGROV1 ovarian
RXF 393 renal = system: RXF 393 renal
M14 melanoma = system: M14 melanoma
BT-549 breast = system: BT-549 breast
T-47D breast = system: T-47D breast
OVCAR-3 ovarian = system: OVCAR-3 ovarian
PC-3 prostate = system: PC-3 prostate
A549 NSCLC = system: A549 NSCLC
OVCAR-5 ovarian = system: OVCAR-5 ovarian
HOP-62 NSCLC = system: HOP-62 NSCLC
MCF7 breast = system: MCF7 breast
SF-295 CNS = system: SF-295 CNS
HL-60(TB) leukemia = system: HL-60(TB) leukemia
SNB-19 CNS = system: SNB-19 CNS
HOP-92 NSCLC = system: HOP-92 NSCLC
NCI/ADR-RES ovarian = system: NCI/ADR-RES ovarian
SF-539 CNS = system: SF-539 CNS
CCRF-CEM leukemia = system: CCRF-CEM leukemia
ACHN renal = system: ACHN renal
DU-145 prostate = system: DU-145 prostate
UACC-257 melanoma = system: UACC-257 melanoma
OVCAR-4 ovarian = system: OVCAR-4 ovarian
786-0 renal = system: 786-0 renal
HCT-116 colon = system: HCT-116 colon
EKVX NSCLC = system: EKVX NSCLC
SN12C renal = system: SN12C renal
MDA-MB-231 breast = system: MDA-MB-231 breast
HCT-15 colon = system: HCT-15 colon
NCI-H226 lung = system: NCI-H226 lung
HS 578T breast = system: HS 578T breast
NCI-H23 lung = system: NCI-H23 lung
MOLT-4 leukemia = system: MOLT-4 leukemia
NCI-H522 lung = system: NCI-H522 lung
SK-MEL-2 melanoma = system: SK-MEL-2 melanoma
K-562 leukemia = system: K-562 leukemia
MALME-3M melanoma = system: MALME-3M melanoma
SK-OV-3 ovarian = system: SK-OV-3 ovarian
SW-620 colon = system: SW-620 colon
COLO 205 colon = system: COLO 205 colon
HT29 colon = system: HT29 colon

CC(C)(C)c1ccc(S(=O)(=O)N2C(c3cccc(C4CC[C@@H](C(=O)O)N4S(=O)(=O)c4ccc(C(C)(C)C)cc4)c3)CC[C@H]2C(=O)O)cc1 (stereo partly drawn)
TGI (MDA-MB-435): > 100 µM
TGI (SK-MEL-28 melanoma): > 100 µM
TGI (UO-31 renal): 87.3 µM
TGI (MDA-N): > 100 µM
TGI (SF-268 CNS): > 100 µM
TGI (HCC-2998 colon): > 100 µM
TGI (NCI-H460 lung): > 100 µM
TGI (A498 renal): > 100 µM
TGI (CAKI-1 renal): > 100 µM
TGI (SR leukemia): > 100 µM
TGI (KM12 colon): > 100 µM
TGI (TK-10 renal): > 100 µM
TGI (RPMI-8226 leukemia): > 100 µM
TGI (OVCAR-8 ovarian): > 100 µM
TGI (UACC-62 melanoma): > 100 µM
TGI (U251 CNS): > 100 µM
TGI (LOX IMVI melanoma): > 100 µM
TGI (SNB-75 CNS): > 100 µM
TGI (SK-MEL-5 melanoma): > 100 µM
TGI (IGROV1 ovarian): > 100 µM
TGI (RXF 393 renal): > 100 µM
TGI (M14 melanoma): > 100 µM
TGI (BT-549 breast): > 100 µM
TGI (T-47D breast): > 100 µM
TGI (OVCAR-3 ovarian): > 100 µM
TGI (PC-3 prostate): > 100 µM
TGI (A549 NSCLC): > 100 µM
TGI (OVCAR-5 ovarian): > 100 µM
TGI (HOP-62 NSCLC): > 100 µM
TGI (MCF7 breast): > 100 µM
TGI (SF-295 CNS): > 100 µM
TGI (HL-60(TB) leukemia): > 100 µM
TGI (SNB-19 CNS): > 100 µM
TGI (HOP-92 NSCLC): > 100 µM
TGI (NCI/ADR-RES ovarian): > 100 µM
TGI (SF-539 CNS): > 100 µM
TGI (CCRF-CEM leukemia): > 100 µM
TGI (ACHN renal): > 100 µM
TGI (DU-145 prostate): > 100 µM
TGI (UACC-257 melanoma): > 100 µM
TGI (OVCAR-4 ovarian): > 100 µM
TGI (786-0 renal): > 100 µM
TGI (HCT-116 colon): > 100 µM
TGI (EKVX NSCLC): > 100 µM
TGI (SN12C renal): > 100 µM
TGI (MDA-MB-231 breast): > 100 µM
TGI (HCT-15 colon): > 100 µM
TGI (NCI-H226 lung): > 100 µM
TGI (HS 578T breast): > 100 µM
TGI (NCI-H23 lung): > 100 µM
TGI (MOLT-4 leukemia): > 100 µM
TGI (NCI-H522 lung): > 100 µM
TGI (SK-MEL-2 melanoma): > 100 µM
TGI (K-562 leukemia): > 100 µM
TGI (MALME-3M melanoma): > 100 µM
TGI (SK-OV-3 ovarian): > 100 µM
TGI (SW-620 colon): > 100 µM
TGI (COLO 205 colon): > 100 µM
TGI (HT29 colon): > 100 µM

Nc1cccc(C2CCCc3c2[nH]c2ccccc32)c1 (stereo not drawn)
TGI (MDA-MB-435): 41.1 µM
TGI (SK-MEL-28 melanoma): > 100 µM
TGI (UO-31 renal): > 100 µM
TGI (MDA-N): 37.4 µM
TGI (SF-268 CNS): 56.4 µM
TGI (HCC-2998 colon): 61 µM
TGI (NCI-H460 lung): 73.6 µM
TGI (A498 renal): 28.9 µM
TGI (CAKI-1 renal): 69.2 µM
TGI (SR leukemia): 31.4 µM
TGI (KM12 colon): 49.8 µM
TGI (TK-10 renal): > 100 µM
TGI (RPMI-8226 leukemia): 56.6 µM
TGI (OVCAR-8 ovarian): 34.8 µM
TGI (UACC-62 melanoma): 31.1 µM
TGI (U251 CNS): 28.9 µM
TGI (LOX IMVI melanoma): 25.4 µM
TGI (SNB-75 CNS): 36.1 µM
TGI (SK-MEL-5 melanoma): 33.1 µM
TGI (IGROV1 ovarian): 39.8 µM
TGI (RXF 393 renal): 39.3 µM
TGI (M14 melanoma): 62.4 µM
TGI (BT-549 breast): 41.9 µM
TGI (T-47D breast): 54.7 µM
TGI (OVCAR-3 ovarian): > 100 µM
TGI (PC-3 prostate): 53.9 µM
TGI (A549 NSCLC): 47.7 µM
TGI (OVCAR-5 ovarian): 45.8 µM
TGI (HOP-62 NSCLC): > 100 µM
TGI (MCF7 breast): 54.7 µM
TGI (SF-295 CNS): 64.5 µM
TGI (HL-60(TB) leukemia): 43 µM
TGI (SNB-19 CNS): 72.7 µM
TGI (HOP-92 NSCLC): 42.7 µM
TGI (NCI/ADR-RES ovarian): 38.8 µM
TGI (SF-539 CNS): 40.6 µM
TGI (CCRF-CEM leukemia): 57 µM
TGI (ACHN renal): 76.8 µM
TGI (DU-145 prostate): > 100 µM
TGI (UACC-257 melanoma): 69.1 µM
TGI (OVCAR-4 ovarian): > 100 µM
TGI (786-0 renal): 41.5 µM
TGI (HCT-116 colon): 34 µM
TGI (EKVX NSCLC): 67.5 µM
TGI (SN12C renal): 32.7 µM
TGI (MDA-MB-231 breast): 37 µM
TGI (HCT-15 colon): 40.5 µM
TGI (NCI-H226 lung): 47.9 µM
TGI (HS 578T breast): 43.7 µM
TGI (NCI-H23 lung): 46.4 µM
TGI (MOLT-4 leukemia): 54.1 µM
TGI (NCI-H522 lung): 34.1 µM
TGI (SK-MEL-2 melanoma): 37.8 µM
TGI (K-562 leukemia): 48.7 µM
TGI (MALME-3M melanoma): 48.3 µM
TGI (SK-OV-3 ovarian): 70.4 µM
TGI (SW-620 colon): 42.6 µM
TGI (COLO 205 colon): 43.6 µM
TGI (HT29 colon): 33.4 µM
